Test results as given in patent US8673950B2, “Dihydrooxazol-2-amine derivatives” (Hoffmann-LaRoche Inc., priority 2010, dated 2014).

Tests used:
mouse TAAR1 = mouse TAAR1 (Mus musculus (Mouse), UniProt Q923Y8); experiment: Radioligand binding assay on mouse TAAR1; details: mouse TAAR1, membranes of stably transfected HEK-293 cells; first value of cell mouse/rat
Protocol: (§1) Construction of TAAR Expression Plasmids and Stably Transfected Cell Lines
(§2) For the construction of expression plasmids the coding sequences of human, rat and mouse TAAR 1 were amplified from genomic DNA essentially as described by Lindemann et al.. The Expand High Fidelity PCR System (Roche Diagnostics) was used with 1.5 mM Mg^2+ and purified PCR products were cloned into pCR2.1-TOPO cloning vector (Invitrogen) following the instructions of the manufacturer. PCR products were subcloned into the pIRESneo2 vector (BD Clontech, Palo Alto, Calif.), and expression vectors were sequence verified before introduction in cell lines.
(§3) HEK293 cells (ATCC # CRL-1573) were cultured essentially as described by Lindemann et al. (2005). For the generation of stably transfected cell lines HEK293 cells were transfected with the pIRESneo2 expression plasmids containing the TAAR coding sequences (described above) with Lipofectamine 2000 (Invitrogen) according to the instructions of the manufacturer, and 24 hrs post transfection the culture medium was supplemented with 1 mg/ml G418 (Sigma, Buchs, Switzerland). After a culture period of about 10 d clones were isolated, expanded and tested for responsiveness to trace amines (all compounds purchased from Sigma) with the cAMP Biotrak Enzyme immunoassay (EIA) System (Amersham) following the non-acetylation EIA procedure provided by the manufacturer.
Radioligand Binding Assay on Mouse TAAR1
(§4) Membrane Preparation and Radioligand Binding.
(§5) HEK-293 cells stably expressing mouse TAAR1 were maintained at 37° C. and 5% CO2 in DMEM high glucose medium, containing fetal calf serum (10%, heat inactivated for 30 min at 56° C.), penicillin/streptomycin (1%), and 375 μg/ml geneticin (Gibco). Cells were released from culture flasks using trypsin/EDTA, harvested, washed twice with ice-cold PBS (without Ca^2+ and Mg^2+), pelleted at 1'000 rpm for 5 min at 4° C., frozen and stored at −80° C. Frozen pellets were suspended in 20 ml HEPES-NaOH (20 mM, pH 7.4) containing 10 mM EDTA and homogenized with a Polytron (PT 6000, Kinematica) at 14'000 rpm for 20 s. The homogenate was centrifuged at 48'000×g for 30 min at 4° C. Subsequently, the supernatant was removed and discarded, and the pellet resuspended in 20 ml HEPES-NaOH (20 mM, pH 7.4) containing 0.1 mM EDTA using the Polytron (20 s at 14'000 rpm). This procedure was repeated and the final pellet resuspended in HEPES-NaOH containing 0.1 mM EDTA and homogenized using the Polytron. Typically, aliquots of 2 ml membrane portions were stored at −80° C. With each new membrane batch the dissociation constant (Kd) was determined via a saturation curve. The TAAR1 radioligand ^3[H]-(S)-4-[(ethyl-phenyl-amino)-methyl]-4,5-dihydro-oxazol-2-ylamine (described in WO 2008/098857) was used at a concentration equal to the calculated Kd value, that was usually around 0.7 nM, resulting in the binding of approximately 0.5% of the radioligand and a specific binding representing approximately 70% of the total binding. Nonspecific binding was defined as the amount of ^3[H]-(S)-4-[(ethyl-phenyl-amino)-methyl]-4,5-dihydro-oxazol-2-ylamine bound in the presence of 10 μM unlabeled ligand. All compounds were tested at a broad range of concentrations (10 μM to 10 μM) in duplicates. […] The 96 deep well plates were incubated for 1 hr at 4° C. Incubations were terminated by rapid filtration through Unifilter-96 plates (Packard Instrument Company) and glass filters GF/C (Perkin Elmer) presoaked for 1 hr in polyethylenimine (0.3%) and washed 3 times with 1 ml of cold binding buffer. After addition of 45 μl of Microscint 40 (PerkinElmer) the Unifilter-96 plate was sealed and after 1 hr the radioactivity counted using a TopCount Microplate Scintillation Counter (Packard Instrument Company).

rat TAAR1 = rat TAAR1 (Rattus norvegicus (Rat), UniProt Q923Y9); experiment: Radioligand binding assay on rat TAAR1; details: rat TAAR1, membranes of stably transfected HEK-293 cells; second value of cell mouse/rat
Protocol: as §1, §2, §3
Radioligand Binding Assay on Rat TAAR1
as §4
as §5, with “expressing rat” for “expressing mouse”, “curve. […]” for “curve. The TAAR1 radioligand ^3[H]-(S)-4-[(ethyl-phenyl-amino)-methyl]-4,5-dihydro-oxazol-2-ylamine (described in WO 2008/098857) was used at a concentration equal to the calculated Kd value, that was usually around 0.7 nM, resulting in the binding of approximately 0.5% of the radioligand and a specific binding representing approximately 70% of the total binding.”, “(10 pM” for “(10 μM”

Sequence of mouse TAAR1 (Q923Y8 whole entry): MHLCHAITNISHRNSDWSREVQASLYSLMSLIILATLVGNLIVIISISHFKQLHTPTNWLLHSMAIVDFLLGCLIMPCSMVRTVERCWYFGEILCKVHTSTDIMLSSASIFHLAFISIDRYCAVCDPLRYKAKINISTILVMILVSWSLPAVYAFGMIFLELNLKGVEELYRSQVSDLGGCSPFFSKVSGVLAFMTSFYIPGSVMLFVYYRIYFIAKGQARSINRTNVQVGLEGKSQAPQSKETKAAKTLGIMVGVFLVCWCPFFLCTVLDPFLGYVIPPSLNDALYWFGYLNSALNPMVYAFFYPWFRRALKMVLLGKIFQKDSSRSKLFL
Sequence of rat TAAR1 (Q923Y9 whole entry): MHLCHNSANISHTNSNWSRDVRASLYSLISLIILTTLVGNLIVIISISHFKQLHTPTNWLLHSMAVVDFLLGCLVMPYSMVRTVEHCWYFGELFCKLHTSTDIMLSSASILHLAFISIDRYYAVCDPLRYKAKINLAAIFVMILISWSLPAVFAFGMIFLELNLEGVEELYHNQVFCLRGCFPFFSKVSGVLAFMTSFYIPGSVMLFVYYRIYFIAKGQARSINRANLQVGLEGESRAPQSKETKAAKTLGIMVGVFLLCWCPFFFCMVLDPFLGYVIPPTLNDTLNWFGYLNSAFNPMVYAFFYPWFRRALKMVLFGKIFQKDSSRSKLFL

Ki (mouse TAAR1) [µM] | Ki (rat TAAR1) [µM] | SMILES
0.0192 | 0.0024 | CC(=O)c1cnc(Nc2ccc(CC[C@H]3COC(N)=N3)cc2)nc1 [Example 47, 1-(2-{4-[2-((S)-2-Amino-4,5-dihydro-oxazol-4-yl)-ethyl]phenylamino}-pyrimidin-5-yl)-ethanone]
0.0007 | 0.0006 | CCCc1cnc(Nc2ccc(CC[C@H]3COC(N)=N3)cc2)nc1 [Example 49, {4-[2-((8)-2-Amino-4,5-dihydro-oxazol-4-yl)-ethyl]-phenyl}-(5-propyl-pyrimidin-2-yl)-amine]
0.0002 | 0.0001 | NC1=N[C@@H](CCc2ccc(Nc3ccc(Cl)cc3)cc2)CO1 [Example 6, (S)-4-{2-[4-(4-Chloro-phenylamino)-phenyl]-ethyl}-4,5-dihydro-oxazol-2-ylamine]
0.0003 | 0.0002 | NC1=N[C@@H](CCc2ccc(Nc3cc(C(F)(F)F)ccn3)cc2)CO1 [Example 23, {4-[2-((S)-2-Amino-4,5-dihydro-oxazol-4-yl)-ethyl]-phenyl}-(4-trifluoromethyl-pyridin-2-yl)-amine]
0.0035 | 0.0007 | Cc1cccc(Nc2ccc(CC[C@H]3COC(N)=N3)cc2)n1 [Example 25, {4-[2-((S)-2-Amino-4,5-dihydro-oxazol-4-yl)-ethyl]-phenyl}-(6-methyl-pyridin-2-yl)-amine]
0.0105 | 0.0012 | Cc1cnc(Nc2ccc(CC[C@H]3COC(N)=N3)cc2)nc1 [Example 46, {4-[2-((S)-2-Amino-4,5-dihydro-oxazol-4-yl)-ethyl]-phenyl}-(5-methyl-pyrimidin-2-yl)-amine]
0.0182 | 0.0013 | Cc1cc(Nc2ccc(CC[C@H]3COC(N)=N3)cc2)ncn1 [Example 24, {4-[2-((S)-2-Amino-4,5-dihydro-oxazol-4-yl)-ethyl]-phenyl}-(6-methyl-pyrimidin-4-yl)-amine]
0.0005 | 0.0004 | CC(C)(C)c1cnc(Nc2ccc(CC[C@H]3COC(N)=N3)cc2)nc1 [Example 57, (S)-4-(4-(5-tert-Butylpyrimidin-2-ylamino)phenethyl)-4,5-dihydrooxazol-2-amine]
0.0007 | 0.0008 | NC1=N[C@@H](CCc2ccc(Nc3cccc(C(F)(F)F)n3)cc2)CO1 [Example 26, {4-[2-((S)-2-Amino-4,5-dihydro-oxazol-4-yl)-ethyl-]-phenyl}-(6-trifluoromethyl-pyridin-2-yl)-amine]
0.0008 | 0.0016 | NC1=N[C@@H](CCc2ccc(Nc3cc(C(F)(F)F)cc(Cl)n3)cc2)CO1 [Example 42, {4-[2-((S)-2-Amino-4,5-dihydro-oxazol-4-yl)-ethyl]-phenyl}-(6-chloro-4-trifluoromethyl-pyridin-2-yl)-amine]
0.0021 | 0.0006 | Cc1cc(Nc2ccc(CC[C@H]3COC(N)=N3)cc2)c2ncccc2c1 [Example 4, (S)-4-(4-(6-Methylquinolin-8-ylamino)phenethyl)-4,5-dihydrooxazol-2-amine]
0.0035 | 0.0006 | NC1=N[C@@H](CCc2ccc(Nc3cccc4cccnc34)cc2)CO1 [Example 1, (S)-4-(4-(Quinolin-8-ylamino)phenethyl)-4,5-dihydrooxazol-2-amine]
0.0651 | 0.0265 | NC1=N[C@@H](CCc2ccc(NC(c3ccc(Cl)cn3)C(F)(F)F)cc2)CO1 (stereo partly drawn) [Example 68, (4S)-4-(4-(1-(5-Chloropyridin-2-yl)-2,2,2-trifluoroethylamino)phenethyl)-4,5-dihydrooxazol-2-amine]
0.0024 | 0.001 | NC1=N[C@@H](CCc2ccc(Nc3nccc(C(F)(F)F)n3)cc2)CO1 [Example 40, {4-[2-((S)-2-Amino-4,5-dihydro-oxazol-4-yl)-ethyl]-phenyl}-(4-trifluoromethyl-pyrimidin-2-yl)-amine]

SMILES | Ki (mouse TAAR1) [µM] | Ki (rat TAAR1) [µM]
Cc1ccc(Nc2ccc(CC[C@H]3COC(N)=N3)cc2)cc1 [Example 14, (S)-4-(4-(p-Tolylamino)phenethyl)-4,5-dihydrooxazol-2-amine] | 0.0008 | 0.0001
N#Cc1cncc(Nc2ccc(CC[C@H]3COC(N)=N3)cc2)n1 [Example 31, 6-{4-[2-((S)-2-Amino-4,5-dihydro-oxazol-4-yl)-ethyl]-phenylamino}-pyrazine-2-carbonitrile] | 0.0133 | 0.0059
COc1ccc(Nc2ccc(CC[C@H]3COC(N)=N3)cc2)cc1 [Example 9, (S)-4-{2-[4-(4-Methoxy-phenylamino)-phenyl]-ethyl}-4,5-dihydro-oxazol-2-ylamine] | 0.0032 | 0.0002
NC1=N[C@@H](CCc2ccc(NC(c3cc(Cl)cc(Cl)c3)C(F)(F)F)cc2)CO1 (stereo partly drawn) [Example 69, (4S)-4-(4-(1-(3,5-Dichlorophenyl)-2,2,2-trifluoroethylamino)phenethyl)-4,5-dihydrooxazol-2-amine] | 0.0355 | 0.0407
CSc1ccnc(Nc2ccc(CC[C@H]3COC(N)=N3)cc2)n1 [Example 45, {4-[2-((S)-2-Amino-4,5-dihydro-oxazol-4-yl)-ethyl]-phenyl}-(4-methylsulfanyl-pyrimidin-2-yl)-amine] | 0.0077 | 0.0013
NC1=N[C@@H](CCc2ccc(Nc3cccc(Cl)n3)cc2)CO1 [Example 28, {4-[2-((8)-2-Amino-4,5-dihydro-oxazol-4-yl)-ethyl]-phenyl}-(6-chloro-pyridin-2-yl)-amine] | 0.001 | 0.0005
CCc1cnc(Nc2ccc(CC[C@H]3COC(N)=N3)cc2)nc1 [Example 37, {4-[2-((S)-2-Amino-4,5-dihydro-oxazol-4-yl)-ethyl]-phenyl}-(5-ethyl-pyrimidin-2-yl)-amine] | 0.0013 | 0.0012
NC1=N[C@@H](CCc2ccc(NC(c3ccc(Cl)cc3)C(F)(F)F)cc2)CO1 (stereo partly drawn) [Example 63, (4S)-4-(4-(1-(4-Chlorophenyl)-2,2,2-trifluoroethylamino)phenethyl)-4,5-dihydrooxazol-2-amine] | 0.0084 | 0.0022
NC1=N[C@@H](CCc2ccc(Nc3ccc(Cl)c(Cl)c3)cc2)CO1 [Example 19, (S)-4-(4-(3,4-Dichlorophenylamino)phenethyl)-4,5-dihydrooxazol-2-amine] | 0.0002 | 0.0001
